Three compounds from paper PMC6978800, “FAMIN Is a Multifunctional Purine Enzyme Enabling the Purine Nucleotide Cycle” (Cell, 2020) can be followed below.

One test addresses T1, YfiH (Escherichia coli, UniProt P33644).
T1 construct: gene pgeF; synthetic gene in pPSG-IBA105 (Strep-tag); expressed in E. coli BL21(DE3); StrepTrap and size exclusion
T1 sequence (P33644 1-243): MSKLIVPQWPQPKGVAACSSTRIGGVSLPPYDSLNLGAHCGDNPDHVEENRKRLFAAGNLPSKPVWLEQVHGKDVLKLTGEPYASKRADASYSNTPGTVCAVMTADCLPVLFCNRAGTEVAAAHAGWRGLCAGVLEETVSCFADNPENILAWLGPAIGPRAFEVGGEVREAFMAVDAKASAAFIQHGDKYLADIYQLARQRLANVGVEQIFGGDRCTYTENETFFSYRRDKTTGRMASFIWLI
Put plainly: LC-MS of inosine and adenine. It is filed as biochemical. The settings on record: 10 μM substrate, PBS pH 7.4, 37°C, 1 h.

Another test addresses T2, FAMIN^254I (Homo sapiens, UniProt Q8IV20).
T2 construct: gene LACC1; full-length, N-terminal Twin-Strep-tag with TEV site, tag cut (kept in select experiments); expressed in HEK293T; monomer; 430 residues
T2 sequence (Q8IV20 1-430): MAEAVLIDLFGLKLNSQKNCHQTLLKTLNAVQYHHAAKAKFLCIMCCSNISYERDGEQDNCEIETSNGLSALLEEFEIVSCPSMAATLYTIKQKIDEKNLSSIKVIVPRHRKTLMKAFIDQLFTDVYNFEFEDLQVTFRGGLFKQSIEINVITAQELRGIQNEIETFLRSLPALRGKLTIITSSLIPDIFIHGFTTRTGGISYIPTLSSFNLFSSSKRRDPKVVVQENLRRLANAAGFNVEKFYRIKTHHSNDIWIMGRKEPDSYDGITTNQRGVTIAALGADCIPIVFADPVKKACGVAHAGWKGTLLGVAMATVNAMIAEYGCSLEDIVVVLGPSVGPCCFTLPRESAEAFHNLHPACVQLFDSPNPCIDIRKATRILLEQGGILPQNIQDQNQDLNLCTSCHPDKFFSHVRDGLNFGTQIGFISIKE
Put plainly: LC-MS product quantitation, Michaelis-Menten. The settings on record: PBS pH 7.4, 37°C; phosphate as co-substrate of phosphorolysis; read-out: apparent Km. It counts as biochemical.

The target in test [1] is T3, YlmD (Geobacillus stearothermophilus, UniProt P84138).
T3 construct: gene pgeF; synthetic gene in pPSG-IBA105 (Strep-tag); expressed in E. coli BL21(DE3); StrepTrap and size exclusion
T3 sequence (P84138 1-274): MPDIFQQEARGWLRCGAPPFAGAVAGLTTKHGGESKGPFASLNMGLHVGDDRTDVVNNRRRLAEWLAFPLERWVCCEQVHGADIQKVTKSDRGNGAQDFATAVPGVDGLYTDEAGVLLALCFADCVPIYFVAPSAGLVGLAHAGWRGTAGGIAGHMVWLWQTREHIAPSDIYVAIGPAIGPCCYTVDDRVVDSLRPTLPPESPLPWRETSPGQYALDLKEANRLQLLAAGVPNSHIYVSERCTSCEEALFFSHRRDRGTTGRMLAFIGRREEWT
Put plainly: LC-MS of inosine and adenine. It counts as biochemical. The following applies: 10 μM substrate, PBS pH 7.4, 37°C, 1 h.

Test [2] deals with T3, YlmD. Put plainly: X-ray crystal structure, soaked crystals, […] Å. It is filed as binding. The following applies: soak with 18.7 mM inosine, 0.5 mM sodium phosphate, 0.5 mM zinc sulfate, pH 7.5; active site, ribose partially hydrolyzed or disordered.
In test [3] the target is T3, YlmD. Put plainly: LC-MS of adenine. It is filed as biochemical. The following applies: 10 μM substrate, PBS pH 7.4, 37°C, 1 h.

For the compound `Nc1ncnc2c1ncn2[C@@H]1O[C@H](CO)[C@@H](O)[C@H]1O` [Adenosine], the “LC-MS of inosine and adenine” value was “YlmD and YfiH metabolized adenosine to inosine and adenine, MTA to adenine” on YfiH; “YlmD and YfiH metabolized adenosine to inosine and adenine, MTA to adenine” on YlmD [1]. Moreover, the Km on FAMIN^254I was 36 µM.

In the case of `O=c1[nH]cnc2c1ncn2[C@@H]1O[C@H](CO)[C@@H](O)[C@H]1O` [Inosine], the “X-ray crystal structure, soaked crystals, 1.2 Å” value on YlmD [2] is reported as “unambiguously identifying the purine ring of a bound inosine molecule”. The Km on FAMIN^254I is 41 µM.

As to `CSC[C@H]1O[C@@H](n2cnc3c(N)ncnc32)[C@H](O)[C@@H]1O` [S-methyl-5′-thioadenosine], the LC-MS of adenine result at YlmD [3] is “YlmD and YfiH metabolized adenosine to inosine and adenine, MTA to adenine”. The Michaelis constant (Km) at FAMIN^254I came out at 1 µM.

By Km is commonly meant the concentration of substrate that gives half-maximal velocity.
